pIC50: −log10 of the molar value.
Each compound was assayed against IRAK4 (Homo sapiens (Human), UniProt Q9NWZ3) (assay: IRAK4 Inhibition Assay). Details: ATP 500 μM; IRAK4 0.6 nM.
Format: biochemical
Method: The assays were performed in U-bottom 384-well plates. The final assay volume was 30 μL prepared from 15 μL additions of enzyme and substrates (fluoresceinated peptide and ATP) and test compounds in assay buffer (20 mM HEPES pH 7.2, 10 mM MgCl2, 0.015% Brij 35 and 4 mM DTT). The reaction was initiated by the combination of IRAK4 with substrates and test compounds. The reaction mixture was incubated at room temperature for 60 min. and terminated by adding 45 μL of 35 mM EDTA to each sample. The reaction mixture was analyzed on the Caliper LABCHIP® 3000 (Caliper, Hopkinton, Mass.) by electrophoretic separation of the fluorescent substrate and phosphorylated product. Inhibition data were calculated by comparison to no enzyme control reactions for 100% inhibition and vehicle-only reactions for 0% inhibition. The final concentrations of reagents in the assays are ATP, 500 μM; FL-IPTSPITTTYFFFKKK peptide 1.5 μM; IRAK4, 0.6 nM; and DMSO, 1.6%.

Chain of IRAK4 (Q9NWZ3 whole entry, species assumed): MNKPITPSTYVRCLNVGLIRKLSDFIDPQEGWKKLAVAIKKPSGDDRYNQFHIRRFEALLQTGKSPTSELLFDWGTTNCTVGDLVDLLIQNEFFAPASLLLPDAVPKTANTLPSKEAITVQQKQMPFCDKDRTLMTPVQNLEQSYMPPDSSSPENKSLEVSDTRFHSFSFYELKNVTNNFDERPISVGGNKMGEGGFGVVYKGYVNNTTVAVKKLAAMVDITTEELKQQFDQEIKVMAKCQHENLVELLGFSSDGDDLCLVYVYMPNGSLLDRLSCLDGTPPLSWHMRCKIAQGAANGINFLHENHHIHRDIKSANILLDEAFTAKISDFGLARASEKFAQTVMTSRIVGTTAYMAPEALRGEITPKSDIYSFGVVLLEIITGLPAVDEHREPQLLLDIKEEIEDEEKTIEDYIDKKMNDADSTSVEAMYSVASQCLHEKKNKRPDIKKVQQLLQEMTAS

SMILES	pIC50
CC(C)Nc1cc(-n2ncc3cc(C#N)cnc32)ncc1-c1cn(CC2(O)CCN(C(=O)OC(C)(C)C)CC2)nn1 [Example 132, tert-butyl 4-((4-(6-(5-cyano-1H-pyrazolo[3,4-b]pyridin-1-yl)-4-(isopropylamino)pyridin-3-yl)-1H-1,2,3-triazol-1-yl)methyl)-4-hydroxypiperidine-1-carboxylate]	7.29
COc1ccc(OCC(O)Cn2cc(-c3cnc(-n4ncc5cc(C#N)cnc54)cc3NC(C)C)nn2)cc1 (stereo not shown) [Example 136, 1-(5-(1-(2-hydroxy-3-(4-methoxyphenoxy)propyl)-1H-1,2,3-triazol-4-yl)-4-(isopropylamino)pyridin-2-yl)-1H-pyrazolo[3,4-b]pyridine-5-carbonitrile]	7.57
CC(C)Nc1cc(-n2ncc3cc(C#N)cnc32)ncc1-c1cn(C2CNC2)nn1 [Example 138, 1-(5-(1-(azetidin-3-yl)-1H-1,2,3-triazol-4-yl)-4-(isopropylamino)pyridin-2-yl)-1H-pyrazolo[3,4-b]pyridine-5-carbonitrile]	7.60
CC(=O)N1CC(n2cc(-c3cnc(-n4ncc5cc(Cl)cnc54)cc3NC(C)C)nn2)C1 [Example 155, 1-(3-(4-(6-(5-chloro-1H-pyrazolo[3,4-b]pyridin-1-yl)-4-(isopropylamino)pyridin-3-yl)-1H-1,2,3-triazol-1-yl)azetidin-1-yl)ethanone]	8.22
CC(C)Nc1cc(-n2ncc3cc(Cl)cnc32)ncc1-c1cn(C)nn1 [Example 165, 2-(5-chloro-1H-pyrazolo[3,4-b]pyridin-1-yl)-N-isopropyl-5-(1-methyl-1H-1,2,3-triazol-4-yl)pyridin-4-amine]	7.60
CC(C)Nc1cc(-n2ncc3cc(C#N)cnc32)ncc1-c1cn(C[C@@H](N)Cc2ccccc2)nn1 [Example 168, (S)-1-(5-(1-(2-amino-3-phenylpropyl)-1H-1,2,3-triazol-4-yl)-4-(isopropylamino)pyridin-2-yl)-1H-pyrazolo[3,4-b]pyridine-5-carbonitrile]	7.62
CC(C)Nc1cc(-n2ncc3cc(C#N)cnc32)ncc1-c1cn(-c2ccccc2C#N)nn1 [Example 173, 1-(5-(1-(2-cyanophenyl)-1H-1,2,3-triazol-4-yl)-4-(isopropylamino)pyridin-2-yl)-1H-pyrazolo [3,4-b]pyridine-5-carbonitrile]	7.59
CC(C)Nc1cc(-n2ncc3cc(C#N)cnc32)ncc1-c1cn(-c2cccnc2)nn1 [Example 174, 1-(4-(isopropylamino)-5-(1-(pyridin-3-yl)-1H-1,2,3-triazol-4-yl)pyridin-2-yl)-1H-pyrazolo[3,4-b]pyridine-5-carbonitrile]	7.77
COC(=O)c1ccccc1-n1cc(-c2cnc(-n3ncc4cc(C#N)cnc43)cc2NC(C)C)nn1 [Example 175, methyl 2-(4-(6-(5-cyano-1H-pyrazolo[3,4-b]pyridin-1-yl)-4-(isopropylamino)pyridin-3-yl)-1H-1,2,3-triazol-1-yl)benzoate]	7.46
CC(C)Nc1cc(-n2ncc3cc(C#N)cnc32)ncc1-c1cn([C@H]2CCN(C(=O)c3cccnc3)C[C@H]2O)nn1 [Example 184, 1-(5-(1-((3R,4S)-3-hydroxy-1-nicotinoylpiperidin-4-yl)-1H-1,2,3-triazol-4-yl)-4-(isopropylamino)pyridin-2-yl)-1H-pyrazolo[3,4-b]pyridine-5-carbonitrile]	7.70
CC(C)Nc1cc(-n2ncc3cc(C(N)=O)cnc32)ncc1-c1cn([C@@H]2CCNC[C@@H]2O)nn1 [Example 187, 1-(5-(1-((3S,4R)-3-hydroxypiperidin-4-yl)-1H-1,2,3-triazol-4-yl)-4-(isopropylamino)pyridin-2-yl)-1H-pyrazolo[3,4-b]pyridine-5-carboxamide]	6.52
CCOC(=O)N1CC[C@@H](n2cc(-c3cnc(-n4ncc5cc(C#N)cnc54)cc3NC(C)C)nn2)[C@@H](O)C1 [Example 189, (3S,4R)-ethyl 4-(4-(6-(5-cyano-1H-pyrazolo[3,4-b]pyridin-1-yl)-4-(isopropylamino)pyridin-3-yl)-1H-1,2,3-triazol-1-yl)-3-hydroxypiperidine-1-carboxylate]	7.57
CC(C)Nc1cc(-n2ncc3cc(C#N)cnc32)ncc1-c1cn(CC(=O)N2CCN(S(C)(=O)=O)CC2)nn1 [Example 193, 1-(4-(isopropylamino)-5-(1-(2-(4-(methylsulfonyl)piperazin-1-yl)-2-oxoethyl)-1H-1,2,3-triazol-4-yl)pyridin-2-yl)-1H-pyrazolo[3,4-b]pyridine-5-carbonitrile]	8.40
CC(C)CCn1cc(-c2cnc(-n3ncc4cc(Cl)cnc43)cc2NC(C)C)nn1 [Example 217, 2-(5-chloro-1H-pyrazolo [3,4-b]pyridin-1-yl)-5-(1-isopentyl-1H-1,2,3-triazol-4-yl)-N-isopropylpyridin-4-amine]	8.22
CC(C)Nc1cc(-n2ncc3cc(C#N)cnc32)ncc1-c1cn(C[C@H](C)O)cn1 [Example 222, (S)-1-(5-(1-(2-hydroxypropyl)-1H-imidazol-4-yl)-4-(isopropylamino)pyridin-2-yl)-1H-pyrazolo[3,4-b]pyridine-5-carbonitrile]	7.20
CC(=O)N1CC(n2cnc(-c3cnc(-n4ncc5cc(C#N)cnc54)cc3NC(C)C)c2)C1 [Example 223, 1-(5-(1-(1-acetylazetidin-3-yl)-1H-imidazol-4-yl)-4-(isopropylamino)pyridin-2-yl)-1H-pyrazolo[3,4-b]pyridine-5-carbonitrile]	7.66
CC(C)Nc1cc(-n2ncc3cc(C#N)cnc32)ncc1-c1cn(-c2cccnc2)cn1 [Example 224, 1-(4-(isopropylamino)-5-(1-(pyridin-3-yl)-1H-imidazol-4-yl)pyridin-2-yl)-1H-pyrazolo[3,4-b]pyridine-5-carbonitrile]	7.06
CCn1cnc(-c2cnc(-n3ncc4cc(C#N)cnc43)cc2NC(C)C)c1 [Example 227, 1-(5-(1-ethyl-1H-imidazol-4-yl)-4-(isopropylamino)pyridin-2-yl)-1H-pyrazolo[3,4-b]pyridine-5-carbonitrile]	7.54
CC(C)Nc1cc(-n2ncc3cc(C#N)cnc32)ncc1-c1cn(C[C@H](C)CO)cn1 [Example 228, (S)-1-(5-(1-(3-hydroxy-2-methylpropyl)-1H-imidazol-4-yl)-4-(isopropylamino)pyridin-2-yl)-1H-pyrazolo[3,4-b]pyridine-5-carbonitrile]	7.72
CC(C)Nc1cc(-n2ncc3cc(C#N)cnc32)ncc1-c1cn(Cc2ccccc2)cn1 [Example 230, 1-(5-(1-benzyl-1H-imidazol-4-yl)-4-(isopropylamino)pyridin-2-yl)-1H-pyrazolo[3,4-b]pyridine-5-carbonitrile]	7.57
CC(C)Nc1cc(-n2ncc3cc(C#N)cnc32)ncc1-c1cn(CC(=O)N2CCOCC2)cn1 [Example 231, 1-(4-(isopropylamino)-5-(1-(2-morpholino-2-oxoethyl)-1H-imidazol-4-yl)pyridin-2-yl)-1H-pyrazolo[3,4-b]pyridine-5-carbonitrile]	7.68
CC(C)Nc1cc(-n2ncc3cc(C#N)cnc32)ncc1-c1cn(Cc2cccnc2)cn1 [Example 235, 1-(4-(isopropylamino)-5-(1-(pyridin-3-ylmethyl)-1H-imidazol-4-yl)pyridin-2-yl)-1H-pyrazolo[3,4-b]pyridine-5-carbonitrile]	7.52
